Measured values as given in US20240299354A1, “COMPOSITIONS AND METHODS FOR TREATING CANCER” (The Regents of the University of Michigan, priority 2021, published 2024).

Legend:
[1] = test system: 4T1 cells; test: 4T1 cell stiffness in vitro, Optical Tweezers Microscopy; format: cell-based, mouse; conditions: FIG. 8c
Protocol: OTM was established to measure tumor cell stiffness. A modular OTM (Thorlabs—OKBT) was adapted for axial cell indentation and force measurement. Briefly, a collimated laser beam (YLM-5-IPG Photonics—Yb fiber laser 1064 nm) was focused through a 100× objective (Nikon, N.A.=1.25, oil immersion) to produce a stable optical trap for 3 μm diameter silica microbeads (Bangs Laboratories) dispersed in the medium. During data acquisition, the cells were maintained at 37° C. by an integrated temperature controller unit (RS Components). The sample was imaged through the trapping objective and a tube lens by a CMOS camera (Thorlabs—DCC1240C). A microbead probe was individually trapped and positioned above the cell nucleus area of a selected cell using a piezoelectric NanoMax 3-axis flexure stage (Thorlabs). The position of the microbead in the trap was tracked by back focal plane interferometry method using the laser light scattered by the trapped bead. The trap height was in the range 3-6 μm from the cover-slip. The trap stiffness was calculated using the equipartition theorem and the power spectrum density methods considering the stiffness variations due to spherical aberrations and neighborhood of the cover-slip. […] Tumor cell stiffness was determined and expressed as […] per site. At least 15 cells per condition were analyzed.

[2] = test system: 4T1 tumors; test: Myh9 and Mylk expression in 4T1 tumors of treated mice (real-time PCR, immunoblots); design: species or system mouse; conditions: in vivo, α-MT in drinking water
Protocol: (§1) For the therapeutic experiments, 2*10^4 4T1 cells were inoculated into the fourth right mammary fat pad of BALB/cJ mice. On day 3, mice were treated (i.p.) with 200 μg of anti-PD-L1 (Bio X Cell) every 3 days, and/or with 250 μg of 4-HAP (i.p., 278564, Sigma) every other day, and/or α-MT (2 mg/mL, M8377, Sigma) in drinking water. Tumor diameters were measured using calipers.
Total RNA was extracted using TRIzol™ Reagent (ThermoFisher Scientific, USA). RNA was quantified by using NanoDrop spectrophotometer. Reverse transcription of the total cellular RNA was carried out using oligo (dT) primers and M-MLV reverse transcriptase (ThermoFisher Scientific, USA). RT-PCR primers are listed (Table 6). PCR was performed using QuantStudio 3 Real-time PCR system (Appliedbiosystems, Thermo Fisher Scientific, USA).
Cell lysates were prepared in RIPA buffer (Thermo Fisher Scientific, USA). The protein concentrations of cell lysates were determined by BCA protein assay kit (Thermo Scientific, USA). Equivalent amounts of total cellular protein were separated by SDS PAGE and transferred to PVDF membranes. The proteins were detected with specific antibodies (Table 7) and developed using ChemiDoc™ Imaging System (Bio-Rad, USA).

[3] = test system: 4T1 tumors; test: tumor stiffness in vivo by atomic force microscopy; design: species or system mouse; conditions: FIG. 5f
Protocol: as §1
AFM was used to measure tumor tissue stiffness in vivo. MFP-3D AFM (Asylum Research, Santa Barbara, CA) combined with a Nikon Ti inverted optical microscope (Nikon, Melville, NY) was used to optically align the probe to the cells. The probes used in this study were MCST-AUHW (Bruker, Camarillo, CA) with a nominal spring constant of 0.03 N/m. […] To eliminate the confounding effects of neighboring cells on cytoskeleton arrangement and morphology, single cells were measured.
For in vivo tumor cell stiffness detection, fresh tumor tissues were excised and prepared immediately as frozen slices. […] The deflection sensitivity was determined in fluid using glass substrates as an infinitely stiff reference material. AFM at room temperature involved recording up to 6×6 point grids (36 force-displacement curves per map) was recorded. […] Force curves were analyzed using the Oliver and Pharr method. Tumor stiffness was determined and expressed as log 10 (pascal) per site. At least 24 sites per tumor tissue were analyzed.

[4] = test system: 4T1 tumors; test: therapeutic experiments in 4T1 tumor bearing BALB/cJ mice (tumor volume, tumor weight); format: in vivo, mouse; conditions: anti-PD-L1 and combination experiment
Protocol: Six to eight week-old female BALB/cJ mice were purchased from The Jackson Laboratory. The work was approved by the Institutional Animal Care and Use Committee at the University of Michigan. Slc6a14^−/− and Slc6a14^+/+ 4T1 tumor cells were inoculated into the fourth right mammary fat pad of BALB/cJ mice. Tumor size was measured every three days using calipers fitted with Vernier scale. Tumor volume (TV) was calculated using the formula: TV=0.5×L×W^2. In some cases, single cell suspensions were made from spleen and tumor tissues for immune phenotype and function analysis.
as §1

[5] = target: T1, SLC6A14 (Homo sapiens, UniProt Q9UN76); conditions: reference 41; cited from earlier work
T1 sequence (Q9UN76 1-642): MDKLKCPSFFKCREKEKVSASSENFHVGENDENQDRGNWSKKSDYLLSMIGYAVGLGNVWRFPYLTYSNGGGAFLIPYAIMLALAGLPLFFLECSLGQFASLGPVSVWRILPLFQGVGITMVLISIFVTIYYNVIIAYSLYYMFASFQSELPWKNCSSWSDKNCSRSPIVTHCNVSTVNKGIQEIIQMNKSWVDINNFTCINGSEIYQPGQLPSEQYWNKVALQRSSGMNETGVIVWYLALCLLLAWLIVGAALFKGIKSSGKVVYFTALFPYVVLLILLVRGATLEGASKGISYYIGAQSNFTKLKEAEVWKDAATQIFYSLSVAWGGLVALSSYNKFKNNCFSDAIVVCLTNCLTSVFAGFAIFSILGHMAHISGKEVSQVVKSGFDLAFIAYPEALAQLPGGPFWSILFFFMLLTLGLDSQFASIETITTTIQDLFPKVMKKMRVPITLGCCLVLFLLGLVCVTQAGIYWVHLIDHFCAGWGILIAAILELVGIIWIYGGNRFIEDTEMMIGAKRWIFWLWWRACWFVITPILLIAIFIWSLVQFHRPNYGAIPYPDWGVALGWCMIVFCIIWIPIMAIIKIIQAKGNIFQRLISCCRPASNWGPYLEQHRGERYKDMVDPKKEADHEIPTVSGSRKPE

[6] = test system: T47D cells; test: perforin and granzyme B-induced tumor cell death; format: cell-based, human; conditions: FOXO1 knocked down T47D cells, FIG. 4h
Protocol: Tumor cells were exposed to hypoxia for 24 hours, or the indicated conditions. Then, tumor cells were co-incubated with perform (APB317Hu01, Cloud-Clone) and granzyme B (2906-SE-010, R&D system) for 10 minutes. PI (10 μg/ml) was added into the culture. PI^+ cells were measured by flow cytometry.

[7] = test system: tumor cells; test: tumor receptivity to CTL-killing in vitro; format: cell-based; conditions: FIG. 9g as printed
[8] = test system: tumor cells; conditions: reference 46; cited from earlier work

CC(N)(Cc1c[nH]c2ccccc12)C(=O)O (racemic) [α-MT, α-methyl-DL-tryptophan]
4T1 cell stiffness [1]: enhanced
levels of Myh9 and Mylk proteins in 4T1 tumors ([2]; immunoblots, FIG. 5e): reduced levels
levels of Myh9 and Mylk transcripts in 4T1 tumors ([2]; real-time PCR, FIG. 5d): reduced levels
4T1 tumor cell stiffness in vivo [3]: increased
4T1 tumor progression / tumor growth ([4]; α-MT, tumor volumes and weight, FIG. 5i-j): partially and similarly slowed down
inhibition of SLC6A14 [5]: functionally inhibits

CC(=O)c1ccc(O)cc1 [4-HAP, 4′-Hydroxyacetophenone]
perforin and granzyme B-induced T47D cell death [6]: rescued
4T1 tumor progression / tumor growth ([4]; 4-HAP, tumor weights and volume, FIG. 5k-l): partially slowed down
tumor receptivity to CTL-killing [7]: promote
stiffening of tumor cells [8]: can stiffen tumor cells
